The experiment relates to L1210 leukemia ip in BDF1 mice, survival T/C. Briefly: NCI In Vivo Anticancer Drug Screen. Data for tumor model L1210 Leukemia (intraperitoneal) in B6D2F1 (BDF1) mice. To be noted: endpoint: mean survival time, higher = longer survival. In outline:
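Read-out is survival time, reported as the treated-group measurement over the vehicle-control measurement.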

Setting [1] is: dose: 100.0 mg/kg/injection, schedule: Q01DX001 (ip), vehicle: carboxymethylcellulose (CMC).
Setting [2] is: dose: 200.0 mg/kg/injection, schedule: Q01DX001 (ip), vehicle: carboxymethylcellulose (CMC).
The mark [3] stands for this setting: dose: 400.0 mg/kg/injection, schedule: Q01DX001 (ip), vehicle: carboxymethylcellulose (CMC).
The mark [4] stands for this setting: dose: 100.0 mg/kg/injection, schedule: Q01DX001 (ip), vehicle: saline.
The mark [5] stands for this setting: dose: 200.0 mg/kg/injection, schedule: Q01DX001 (ip), vehicle: saline.
The mark [6] stands for this setting: dose: 400.0 mg/kg/injection, schedule: Q01DX001 (ip), vehicle: saline.
The mark [7] stands for this setting: dose: 50.0 mg/kg/injection, schedule: Q01DX001 (ip), vehicle: saline.
[8] abbreviates: dose: 100.0 mg/kg/injection, schedule: Q01DX009 (ip), vehicle: saline.
The mark [9] stands for this setting: dose: 200.0 mg/kg/injection, schedule: Q01DX009 (ip), vehicle: saline.
[10] abbreviates: dose: 100.0 mg/kg/injection, schedule: Q01DX009 (ip), vehicle: saline with Tween-80.
Setting [11] is: dose: 100.0 mg/kg/injection, schedule: Q04DX002 (ip), vehicle: Klucel (hydroxypropylcellulose) (HPC).
The mark [12] stands for this setting: dose: 200.0 mg/kg/injection, schedule: Q04DX002 (ip), vehicle: Klucel (hydroxypropylcellulose) (HPC).
The mark [13] stands for this setting: dose: 400.0 mg/kg/injection, schedule: Q04DX002 (ip), vehicle: Klucel (hydroxypropylcellulose) (HPC).

We go through 21 compounds from PubChem BioAssay AID248 (DTP/NCI, 2004).

SMILES strings stand for the structures. Values joined by “and” are separate entries in the source; they are usually repeats but may differ in a detail not shown here. Identical values can stand only once. Toxic doses and inconclusive results are not listed.

Consider `CC(CN(C)C)CN1c2ccccc2CCc2ccccc21` (configuration not stated), for which the T/C was 101 % of control (dose: 4.37 mg/kg/injection, schedule: Q01DX009 (ip), vehicle: saline); 101 % of control (dose: 8.75 mg/kg/injection, schedule: Q01DX009 (ip), vehicle: saline); 98 % of control (dose: 17.5 mg/kg/injection, schedule: Q01DX009 (ip), vehicle: saline); 102 % of control (dose: 17.5 mg/kg/injection, schedule: Q04DX003 (ip), vehicle: saline); 107 % of control (dose: 35.0 mg/kg/injection, schedule: Q01DX009 (ip), vehicle: saline); 102 % of control (dose: 35.0 mg/kg/injection, schedule: Q04DX003 (ip), vehicle: saline). For the same compound, the T/C (dose: 70.0 mg/kg/injection, schedule: Q04DX003 (ip), vehicle: saline) is 104 % of control.

For the compound `CCCCCCCCOC(=O)Nc1ccc(S(=O)(=O)CC)cc1`, the T/C under setting [1] was 91 % of control, the T/C under setting [2] was 89 % of control and the T/C under setting [3] is 89 % of control.

Turning to `O=C(Nc1ccc(F)cc1)OCC1CCCO1` (configuration not stated), the T/C runs as follows: under setting [1], 100 % of control; (dose: 100.0 mg/kg/injection, schedule: Q01DX009 (ip), vehicle: carboxymethylcellulose (CMC)) 102 % of control and 103 % of control; (dose: 100.0 mg/kg/injection, schedule: Q04DX002 (ip), vehicle: carboxymethylcellulose (CMC)) 100 % of control and 102 % of control; under setting [2], 103 % of control; (dose: 200.0 mg/kg/injection, schedule: Q01DX009 (ip), vehicle: carboxymethylcellulose (CMC)) 92 % of control and 97 % of control; (dose: 200.0 mg/kg/injection, schedule: Q04DX002 (ip), vehicle: carboxymethylcellulose (CMC)) 95 % of control and 98 % of control. Besides, the T/C is 92 % of control under setting [3]; 96 % of control and 102 % of control (dose: 400.0 mg/kg/injection, schedule: Q01DX009 (ip), vehicle: carboxymethylcellulose (CMC)); 92 % of control and 96 % of control (dose: 400.0 mg/kg/injection, schedule: Q04DX002 (ip), vehicle: carboxymethylcellulose (CMC)).

Consider `O=C(O)C(Oc1ccc(Cl)cc1)c1ccc(Cl)cc1` (configuration not stated), for which the T/C by setting is: (dose: 100.0 mg/kg/injection, schedule: Q04DX003 (ip), vehicle: Klucel (hydroxypropylcellulose) (HPC)) 96 % of control; (dose: 200.0 mg/kg/injection, schedule: Q04DX003 (ip), vehicle: Klucel (hydroxypropylcellulose) (HPC)) 91 % of control.

`CCOC(=O)C(CC(C(=O)OCC)C(=O)c1ccccc1)C(=O)c1ccccc1` (configuration not stated): the T/C is, setting by setting: under setting [4], 92 % of control; under setting [5], 90 % of control; under setting [6], 97 % of control.

With `CCNC(=O)N(O)C1(C#N)CCCCC1`, the T/C is 98 % of control (dose: 100.0 mg/kg/injection, schedule: Q01DX001 (ip), vehicle: other); 96 % of control (dose: 200.0 mg/kg/injection, schedule: Q01DX001 (ip), vehicle: other); 98 % of control (dose: 400.0 mg/kg/injection, schedule: Q01DX001 (ip), vehicle: other).

For the compound `CCCCCCCCCCC1Cc2ccccc2C1`, the T/C is 95 % of control under setting [7], 98 % of control under setting [4], 104 % of control under setting [5] and 93 % of control under setting [6].

`CCOC(=O)/C=C(/OC(=O)c1ccccc1)c1ccccc1`: the T/C was 95 % of control (dose: 100.0 mg/kg/injection, schedule: Q01DX001 (ip), vehicle: acetone); 107 % of control under setting [8]; 97 % of control (dose: 200.0 mg/kg/injection, schedule: Q01DX001 (ip), vehicle: acetone); 107 % of control under setting [9]; 103 % of control (dose: 400.0 mg/kg/injection, schedule: Q01DX001 (ip), vehicle: acetone); 94 % of control (dose: 400.0 mg/kg/injection, schedule: Q01DX009 (ip), vehicle: saline).

As for `CCOC(=O)/C(C#N)=C\c1cc(OC)ccc1OC`, the T/C by setting is: under setting [10], 101 % of control; (dose: 100.0 mg/kg/injection, schedule: Q04DX003 (ip), vehicle: saline with Tween-80) 96 % of control; (dose: 200.0 mg/kg/injection, schedule: Q04DX003 (ip), vehicle: saline with Tween-80) 94 % of control; (dose: 400.0 mg/kg/injection, schedule: Q04DX003 (ip), vehicle: saline with Tween-80) 93 % of control.

Turning to `CC(C)(C)C(Br)CBr` (configuration not stated), the T/C by setting is: (dose: 50.0 mg/kg/injection, schedule: Q01DX009 (ip), vehicle: saline with Tween-80) 101 % of control; under setting [10], 101 % of control; (dose: 200.0 mg/kg/injection, schedule: Q01DX009 (ip), vehicle: saline with Tween-80) 97 % of control.

As for `N#CCc1cc(Cl)ccc1OCC(=O)O`, the T/C is 95 % of control under setting [11], 103 % of control under setting [12] and 100 % of control under setting [13].

On to `Cc1ccc(S(=O)(=O)Nc2ccc(C(=O)NC(CCC(=O)O)C(=O)O)cc2)cc1` (configuration not stated), for which the T/C was 95 % of control (dose: 100.0 mg/kg/injection, schedule: Q04DX003 (ip), vehicle: gum acacia); 98 % of control (dose: 200.0 mg/kg/injection, schedule: Q04DX003 (ip), vehicle: gum acacia); 95 % of control (dose: 400.0 mg/kg/injection, schedule: Q04DX003 (ip), vehicle: gum acacia).

As for `O=C(CS)CS`, the T/C is 102 % of control (dose: 6.25 mg/kg/injection, schedule: Q01DX009 (ip), vehicle: water); 114 % of control (dose: 12.5 mg/kg/injection, schedule: Q01DX009 (ip), vehicle: water); 98 % of control and 105 % of control (dose: 25.0 mg/kg/injection, schedule: Q01DX009 (ip), vehicle: water); 102 % of control (dose: 25.0 mg/kg/injection, schedule: Q04DX003 (ip), vehicle: water); 97 % of control and 103 % of control (dose: 50.0 mg/kg/injection, schedule: Q01DX009 (ip), vehicle: water); 91 % of control (dose: 50.0 mg/kg/injection, schedule: Q04DX003 (ip), vehicle: water). Also, where the note is “dose: 100.0 mg/kg/injection, schedule: Q04DX003 (ip), vehicle: water”, the T/C was 97 % of control.

Regarding `C[CH2][Ge]1([CH2]C)[CH2]CC2(C[CH2]1)CN(CCCN(C)C)CN2`, the T/C (dose: 100.0 mg/kg/injection, schedule: Q04DX002 (ip), vehicle: saline) was 103 % of control.

For `CN1NC(=O)CC1c1ccccc1` (configuration not stated), the T/C by setting is: under setting [11], 93 % of control; under setting [12], 97 % of control; under setting [13], 100 % of control.

For `COc1cc(O)c([N+](=O)[O-])cc1OC`, the T/C by setting is: (dose: 50.0 mg/kg/injection, schedule: Q04DX003 (ip), vehicle: DMSO) 92 % of control; (dose: 100.0 mg/kg/injection, schedule: Q04DX003 (ip), vehicle: DMSO) 97 % of control; (dose: 200.0 mg/kg/injection, schedule: Q04DX003 (ip), vehicle: DMSO) 92 % of control.

As for `CCN=C(c1ccc(NC(=O)c2ccc(C(=O)Nc3ccc(C(=NCC)N(CC)C(=O)OC)cc3)cc2)cc1)N(CC)C(=O)OC`, the T/C is 112 % of control (dose: 1.5 mg/kg/injection, schedule: Q01DX015 (ip), vehicle: methylcellulose (MC)) and 167 % of control (dose: 7.5 mg/kg/injection, schedule: Q01DX015 (ip), vehicle: methylcellulose (MC)).

With `O=S(=O)(F)c1cc(CBr)ccc1Cl`, the T/C is, setting by setting: (dose: 100.0 mg/kg/injection, schedule: Q04DX002 (ip), vehicle: saline with Tween-80) 98 % of control; (dose: 200.0 mg/kg/injection, schedule: Q04DX002 (ip), vehicle: saline with Tween-80) 95 % of control; (dose: 400.0 mg/kg/injection, schedule: Q04DX002 (ip), vehicle: saline with Tween-80) 101 % of control.

With `CC1CCC(C(O)(C(=O)O)C2CCCCC2)CC1` (configuration not stated), the T/C was 104 % of control (dose: 75.0 mg/kg/injection, schedule: Q01DX001 (ip), vehicle: other) and 101 % of control (dose: 150.0 mg/kg/injection, schedule: Q01DX001 (ip), vehicle: other).

Take `CC(=O)OCC1CCCN1C(C)=O` (configuration not stated): the T/C is, setting by setting: (dose: 50.0 mg/kg/injection, schedule: Q01DX009 (ip), vehicle: saline) 101 % of control; under setting [8], 101 % of control; under setting [9], 101 % of control.

`O=C(N/N=C\c1ccc(N(CCCl)CCCl)cc1[N+](=O)[O-])c1cccnc1`: the T/C under setting [7] was 94 % of control, the T/C under setting [4] is 113 % of control and the T/C under setting [5] was 92 % of control.
